Assays:
[1] = tested on: cancer cells; test: Antiproliferative activity against cancer cells (cell line not stated); assay type: cell-based, human; details: general statement
Text: (§1) We first screened compounds derived from the known pharmacopeia and from a selected natural product collection using two types of assays: (a) measurements of post-translational modifications of proteins; (b) measurements of protein-protein interactions. For the purpose of measuring post-translational modifications of proteins, we used immunofluorescence methods combined with phospho-specific antibodies. For the purpose of quantifying and localizing protein complexes we used fluorescence methods based on protein-fragment complementation assays (PCA). ‘Hits’ from the initial screens were then tested for antiproliferative activity in up to 5 different human tumor cell lines. […] For drugs with antiproliferative activity in PC-3 cells, dose-response curves were generated to determine the EC50 for antiproliferative activity and additional tumor cell lines were tested to determine the breadth of activity. Methods for assay development, validation, screening, and testing of antiproliferative activity are described below.
Cells were maintained in various media as follows: A549, LoVo and PC-3 (Ham's F12K medium with 2 mM L-glutamine and 1.5 g/L sodium bicarbonate), MIA PaCa-2 (Dulbecco's modified Eagle's medium with 4 mM L-glutamine and 4.5 g/L glucose), U87-MG (MEM+Earle's BSS). Medium for each cell line was supplemented with 10% FBS and […] Penecillin/Streptomycin. All cells were grown in incubators set at 37° C., 5% CO2. Thiazolyl Blue Tetrazolium Bromide (MTT) based proliferation assays were performed to assess the anti-proliferative activities of the compounds on these cells. Cells were seeded in 96 well plates at a density of 750 cells/well 24 hours prior to compound treatment. The cells were incubated with varying concentrations of compounds for 120 hours. Compound concentrations range from 0.03 to 100 microM (half log increments) except for alpha-Tomatine (0.001-100 microM, half log increments), Neriifolin (0.0002-100 microM) and Peruvoside (0.01-100 microM). Drug treatment was performed in 5 replicate wells. Background absorbance was established by wells containing medium but no cells. Vehicle (DMSO) only was used as control. MTT (Sigma-Aldrich, St. Louis, Mo.) was added to each well at a final concentration of 0.5 mg/ml. Following a 2 hour incubation at 37° C., medium in the wells was replaced with 0.15 ml DMSO. The plates were agitated for 15 min using a microtiter plate shaker. […] Mean absorbance values were calculated from 5 replicate wells of each drug treatment following subtraction of background absorbance from blank samples and plotted as a percentage of control.

[2] = tested on: A549 cells; test: MTT proliferation assay, non-small cell lung carcinoma A549; assay type: cell-based, Human; details: Tumor Cell: NSCLC (A549), concentrations tested in microM
Text: as §1
(§2) Cells were maintained in various media as follows: A549, LoVo and PC-3 (Ham's F12K medium with 2 mM L-glutamine and 1.5 g/L sodium bicarbonate), MIA PaCa-2 (Dulbecco's modified Eagle's medium with 4 mM L-glutamine and 4.5 g/L glucose), U87-MG (MEM+Earle's BSS). Medium for each cell line was supplemented with 10% FBS and […] Penecillin/Streptomycin. All cells were grown in incubators set at 37° C., 5% CO2. Thiazolyl Blue Tetrazolium Bromide (MTT) based proliferation assays were performed to assess the anti-proliferative activities of the compounds on these cells. Cells were seeded in 96 well plates at a density of 750 cells/well 24 hours prior to compound treatment. The cells were incubated with varying concentrations of compounds for 120 hours. […] Drug treatment was performed in 5 replicate wells. Background absorbance was established by wells containing medium but no cells. Vehicle (DMSO) only was used as control. MTT (Sigma-Aldrich, St. Louis, Mo.) was added to each well at a final concentration of 0.5 mg/ml. Following a 2 hour incubation at 37° C., medium in the wells was replaced with 0.15 ml DMSO. The plates were agitated for 15 min using a microtiter plate shaker.

[3] = tested on: MIA PaCa-2 cells; test: MTT proliferation assay, pancreatic carcinoma MIA PaCa-2; assay type: cell-based; details: Homo sapiens, Tumor Cell: Pancreatic (MIA PaCa-2), concentrations tested in microM
Text: as §1, §2

[4] = tested on: cancer pathways; test: Screening of cancer pathways in human cells (PCA and phospho-immunofluorescence); assay type: cell-based; details: cancer pathway in which the drug was active; screened at 10 micromolar, HEK293 cells
Text: as §1
Immunofluorescence was performed on drug-treated cells using antibodies that specifically recognize phosphorylated forms of key signaling proteins. HEK293T cells were seeded in black-walled, poly-lysine coated 96-well plates (Greiner) at a density of 30,000/well. After 24 hours, cells in duplicate wells were treated with drugs. 100 ng/ml hEGF added to the cells during the last 5 min of drug treatment. The cells were rinsed once with PBS and fixed with 4% formaldehyde for 10 min. The cells were subsequently permeabilized with 0.25% Triton X-100 in PBS and incubated with 3% BSA for 30 min to block non-specific antibody binding. Each of the 4 sets of identically treated cells were then incubated with rabbit antibodies against phosphorylated CREB (Ser133), hsp27 (Ser82), pERK (T202/Y204) (Cell Signaling), or BSA in PBS. The cells were rinsed with PBS and incubated with Alexa488 conjugated goat anti-rabbit secondary antibody (Molecular Probes). Cell nuclei were stained with Hoechst33342 (Molecular Probes). Images were acquired using Discovery-1 High Content Imaging System (Molecular Devices). Background fluorescence due to nonspecific binding by the secondary antibody was established with the use of cells that were incubated with BSA/PBS and without primary antibodies. Fluorescence intensities were quantitated using Image J-based image analysis algorithm as described below.
Reporter fragments for PCA were generated by oligonucleotide synthesis (Blue Heron Biotechnology, Bothell, Wash.). First, oligonucleotides coding for polypeptide fragments YFP[1]and YFP[2] […] Next, PCR mutagenesis was used to generate the mutant fragments IFP[1] and IFP[2]. The IFP[1] fragment corresponds to YFP[1]-(F46L, F64L, M153T) and the IFP[2] fragment corresponds to YFP[2]-(V163A, S175G). […] The YFP[1], YFP[2], IFP[1] and IFP[2] fragments were amplified by PCR to incorporate restriction sites and a linker sequence, described below, in configurations that would allow fusion of a gene of interest to either the 5′- or 3′-end of each reporter fragment. The reporter-linker fragment cassettes were subcloned into a mammalian expression vector (pcDNA3.1Z, Invitrogen) that had been modified to incorporate the replication origin (oriP) of the Epstein Barr virus (EBV). […] Additionally, these vectors still retain the SV40 origin, allowing for episomal expression in cell lines expressing the SV40 large T antigen (e.g. HEK293T, Jurkat or COS). […] PCA fusion constructs were prepared for a large number of proteins known to participate in cellular pathways (Table 1 and Table 2). The full coding sequence for each gene of interest was amplified by PCR from a sequence-verified full-length cDNA.

Compound | Antiproliferative activity against cancer cells [1] | IC50 ([2]; Homo sapiens, 120 hours) | IC50 ([3]; 120 hours) | Pathway Activity [4] | IC50 ([2]; Homo sapiens, A549, 120 h) | IC50 ([3]; MIA PaCa-2, 120 h) | IC50 ([2]; 120 hours)
Cc1c(N(C)C)c(=O)n(-c2ccccc2)n1C [4-dimethylaminoantipyrine] | substantial antiproliferative activity | – | – | – | – | – | –
CCCSc1ccc2nc(NC(=O)OC)[nH]c2c1 [Albendazole] | substantial antiproliferative activity | 0.28 µM | 0.14 µM | invasion/metastasis | – | – | –
CC(C)COCC(CN(Cc1ccccc1)c1ccccc1)N1CCCC1 (centres unmarked) [Bepridil] | substantial antiproliferative activity | – | – | invasion/metastasis | 4.74 µM | 1.58 µM | –
COc1c2ccoc2cc2oc(=O)ccc12 [Bergaptene] | substantial antiproliferative activity | – | – | proliferation; invasion/ | 56.4 µM | 58.3 µM | –
CCN(CC)CCOc1ccc(C(=C(Cl)c2ccccc2)c2ccccc2)cc1 [Clomiphene] | substantial antiproliferative activity | – | – | proliferation | – | – | –
CNCCCN1c2ccccc2CCc2ccccc21 [Desipramine] | substantial antiproliferative activity | – | – | proliferation | 11.9 µM | 1.93 µM | –
Oc1ccc(Cl)cc1Cc1cc(Cl)ccc1O [Dichlorophene] | substantial antiproliferative activity | – | – | proliferation | 9.83 µM | 25.8 µM | –
O=C(CCCN1CC=C(n2c(=O)[nH]c3ccccc32)CC1)c1ccc(F)cc1 [Droperidol] | substantial antiproliferative activity | – | – | invasion/metastasis | 29.4 µM | 13.9 µM | –
Fc1ccc(C(c2ccc(F)cc2)N2CCN(C/C=C/c3ccccc3)CC2)cc1 [Flunarizine] | substantial antiproliferative activity | – | – | invasion/metastasis | – | – | –
COC(=O)Nc1nc2ccc(C(=O)c3ccccc3)cc2[nH]1 [Mebendazole] | substantial antiproliferative activity | – | – | invasion/metastasis | 0.18 µM | – | 0.28 µM
CCN(CCCCOC(=O)c1ccc(OC)c(OC)c1)C(C)Cc1ccc(OC)cc1 (centres unmarked) [Mebeverine] | substantial antiproliferative activity | – | – | invasion/metastasis | – | – | –
C=C1c2c(Cl)ccc(O)c2C(=O)C2=C(O)[C@]3(O)C(=O)C(C(N)=O)=C(O)[C@@H](N(C)C)[C@@H]3[C@@H](O)[C@H]12 [Meclocycline] | – | – | – | – | 18.8 µM | 68.2 µM | –
CN1C[C@H](CNC(=O)OCc2ccccc2)C[C@@H]2c3cccc4c3c(cn4C)C[C@H]21 [Melergoline] | substantial antiproliferative activity | – | – | invasion/metastasis | 5.7 µM | 20.7 µM | –
CO[C@H]1[C@H](O)[C@H](O[C@H]2CC[C@@]3(C)[C@H](CC[C@@H]4[C@@H]3CC[C@]3(C)[C@@H](C5=CC(=O)OC5)CC[C@]43O)C2)O[C@@H](C)[C@@H]1O [Neriifolin] | substantial antiproliferative activity | 0.006 µM | 0.003 µM | invasion/metastasis | – | – | –
COC(=O)C1=C(C)NC(C)=C(C(=O)OCCN(C)Cc2ccccc2)C1c1cccc([N+](=O)[O-])c1 (centres unmarked) [Nicardipine] | – | – | – | – | 21.9 µM | 20.4 µM | –
CO[C@H]1[C@H](O)[C@H](O[C@H]2CC[C@@]3(C=O)[C@H](CC[C@@H]4[C@@H]3CC[C@]3(C)[C@@H](C5=CC(=O)OC5)CC[C@]43O)C2)O[C@@H](C)[C@@H]1O [Peruvoside] | substantial antiproliferative activity | < 0.03 µM | < 0.03 µM | cell cycle | – | – | –
CN(C)CCCN1c2ccccc2Sc2ccccc21 [Promazine] | substantial antiproliferative activity | – | – | proliferation | 11.9 µM | 1.97 µM | –
CC(CN1c2ccccc2Sc2ccccc21)N(C)C (centres unmarked) [Promethazine] | substantial antiproliferative activity | – | – | proliferation | 53.8 µM | 22.2 µM | –
Cc1c(NC(C)C)c(=O)n(-c2ccccc2)n1C [Ramifenazone] | substantial antiproliferative activity | – | – | invasion/metastasis | – | – | –
C[n+]1cc2c3c(ccc2c2ccc4cc5c(cc4c21)OCO5)OCO3 [Sanguinarine] | – | 2.23 µM | 1.93 µM | – | – | – | –
CN[C@H]1CC[C@@H](c2ccc(Cl)c(Cl)c2)c2ccccc21 [Sertraline] | substantial antiproliferative activity | – | – | apoptosis | – | – | –
CCCCCCCCNC(C)C(O)c1ccc(SC(C)C)cc1 (centres unmarked) [Suloctidil] | substantial antiproliferative activity | – | – | invasion/metastasis | 0.78 µM | 0.18 µM | –
Cc1c(N(C)CS(=O)(=O)[O-])c(=O)n(-c2ccccc2)n1C.[Na+] [dipyrone] | substantial antiproliferative activity | – | – | – | – | – | –
COC(=O)[C@H]1[C@H]2C[C@@H]3c4[nH]c5cc(OC)ccc5c4CCN3C[C@H]2C[C@@H](OC(=O)c2cc(OC)c(OC)c(OC)c2)[C@@H]1OC [reserpine, Reserpine] | substantial antiproliferative activity | – | – | – | – | – | –

Reference: US20060009506A1, “Drugs for the treatment of neoplastic disorders” (Odyssey Thera, Inc., priority 2004, published 2006)
